From publication PMC10673369, “Preliminary SAR of Novel Pleuromutilin–Polyamine Conjugates” (Microorganisms, 2023) come the findings set out here.

For test [1], the system named is P. aeruginosa PAO1. Kind of test: MIC, broth dilution, P. aeruginosa PAO1. Format: cell-based. The note with it: mean (n = 3); for MIC: Pseudomonas aeruginosa. Here is the method:
(§1) The susceptibility of bacterial strains S. aureus (ATCC 25923), E. coli (ATCC 25922), and P. aeruginosa (ATCC 27853 or PAO1) to antibiotics and compounds was determined using reported protocols. Additional antimicrobial evaluation against MRSA (ATCC 43300), Klebsiella pneumoniae (ATCC 700603), A. baumannii (ATCC 19606), Candida albicans (ATCC 90028), and Cryptococcus neoformans (ATCC 208821) was undertaken at the Community for Open Antimicrobial Drug Discovery at The University of Queensland (Australia) according to their standard protocols as reported previously. […]
(§2) 2.3. Antimicrobial Assays
(§3) The susceptibility of bacterial strains S. aureus (ATCC 25923), E. coli (ATCC 25922), and P. aeruginosa (ATCC 27853 or PAO1) to antibiotics and compounds was determined in microplates using the standard broth dilution method in accordance with the recommendations of the Comité de l’AntibioGramme de la Société Française de Microbiologie (CA-SFM). Briefly, the minimal inhibitory concentrations (MICs) were determined with an inoculum of 10^5 CFU in 200 µL of Mueller–Hinton broth (MHB) containing two-fold serial dilutions of each drug. The MIC was defined as the lowest […]
(§4) determine all MICs, the measurements were independently repeated in triplicate. Additional antimicrobial evaluation against MRSA (ATCC 43300), Klebsiella pneumoniae (ATCC 700603), A. baumannii (ATCC 19606), Candida albicans (ATCC 90028), and Cryptococcus neoformans (ATCC 208821) was undertaken at the Community for Open Antimicrobial Drug Discovery at The University of Queensland (Australia) according to their standard protocols as reported previously. […]
(§5) For C. neoformans, resazurin was added at 0.006% final concentration to each well and incubated for a further 3 h before MICs were determined by measuring […]
(§6) Colistin and vancomycin were used as positive bacterial inhibitor standards for Gram-negative and Gram-positive bacteria, respectively. Fluconazole was used as a positive fungal inhibitor standard for C. albicans and C. neoformans. The antibiotics were provided in […], with 3 above and 3 below its MIC value, and plated into the first 8 wells of column 23 of the 384-well NBS plates. The quality control (QC) of the assays was determined by the antimicrobial controls and the Z'-factor (using positive and negative controls). Each plate was deemed to fulfil the quality criteria (pass QC) if the Z'- […]
(§7) inhibition at their highest concentration, and no growth inhibition at their lowest concentration.
(§8) 2.4. Determination of the MICs of Antibiotics in the Presence of Synergizing Compounds
A general note: Broth dilution looks for growth in wells or tubes with falling amounts of substance.

For the next test, the system named is E. coli ATCC 25922. Kind of test: MIC, broth dilution, E. coli. The following applies: for MIC: Escherichia coli, ATCC25922, mean (n = 3). Format: cell-based, Escherichia coli. As for the experimental part:
as §1, §2, §3, §4

Test [2] relates to P. aeruginosa PAO1. Kind of test: Real-time growth inhibition curves, P. aeruginosa. The test is classed as cell-based. The note with it: optical density during 18 h culturing.
The subject of the next test is C. albicans ATCC 90028. Kind of test: MIC, CO-ADD antifungal assay, C. albicans. The test is classed as cell-based, Candida albicans. The note with it: for MIC: Candida albicans, ATCC90028, mean (n = 2). As for the experimental part: as §1, §2
(§9) The susceptibility of bacterial strains S. aureus (ATCC 25923), E. coli (ATCC 25922), and P. […]
(§10) baumannii (ATCC 19606), Candida albicans (ATCC 90028), and Cryptococcus neoformans (ATCC 208821) was undertaken at the Community for Open Antimicrobial Drug Discovery at The University of Queensland (Australia) according to their standard protocols as reported previously. […]
(§11) For the antifungal assay, fungi strains were cultured for 3 days on YPD agar at 30 °C. A yeast suspension of 1 × 106 to 5 × 10^6 CFU/mL was prepared from five colonies. These stock suspensions were diluted with yeast nitrogen base (YNB) (Becton Dickinson, 233520) broth to a final concentration of 2.5 × 10^3 CFU/mL. The compounds were serially diluted 2-fold across the wells of 96-well plates (Corning 3641, non-binding surface), with compound concentrations ranging from 0.015 to 64 µg/mL and final volumes of 50 µL, plated in duplicate. Then, 50 µL of the fungi suspension that was previously prepared in YNB broth to the final concentration of 2.5 × 10^3 CFU/mL was added to each well of the compound-containing plates, giving a final compound concentration range of 0.008 to 32 µg/mL. Plates were covered and incubated at 35 °C for 36 h without shaking. C. albicans MICs were determined by measuring the absorbance at OD530. For C. neoformans, resazurin was added at 0.006% final concentration to each well and incubated for a further 3 h before MICs were determined by measuring […]
as §6, §7, §8

In test [3] the test system is C. neoformans ATCC 208821. Kind of test: MIC, CO-ADD antifungal assay, C. neoformans. The test is classed as cell-based, Cryptococcus neoformans. The following applies: for MIC: Cryptococcus neoformans, ATCC208821, mean (n = 2). Here is the method:
as §1, §2, §9, §10, §11, §6, §7, §8

For test [4], the system named is K. pneumoniae ATCC 700603. Kind of test: MIC, CO-ADD broth microdilution, K. pneumoniae. The test is classed as cell-based, Klebsiella pneumoniae. The note with it: for MIC: Klebsiella pneumoniae, ATCC700603, mean (n = 2). As for the experimental part: as §1, §2, §9
baumannii (ATCC 19606), Candida albicans (ATCC 90028), and Cryptococcus neoformans (ATCC 208821) was undertaken at the Community for Open Antimicrobial Drug Discovery at The University of Queensland (Australia) according to their standard protocols as reported previously. For antimicrobial assays, the tested strains were cultured in either Luria broth (LB) (In Vitro Technologies, USB75852), nutrient broth (NB) (Becton Dickson, 234000), or MHB at 37 °C overnight. A sample of culture was then diluted 40-fold in fresh MHB and incubated at 37 °C for 1.5−2 h. The compounds were serially diluted 2-fold across the wells of 96-well plates (Corning 3641, non-binding surface), with compound concentrations ranging from 0.015 to 64 µg/ mL, and plated in duplicate. The resultant mid-log phase cultures were diluted to the final concentration of 1 × 10^6 CFU/mL; then, 50 µL was added to each well of the compound-containing plates, giving a final compound concentration range of 0.008 to 32 µg/mL and a cell density of 5 × 10^5 CFU/mL. All plates were then covered and incubated at 37 °C for 18 h. Resazurin was added at 0.001% final concentration to each well and incubated for 2 h before MICs […]
as §5, §6, §7, §8

The next test deals with P. aeruginosa ATCC 27853. Kind of test: Antibiotic enhancement of doxycycline. The test is classed as cell-based. The note with it: for Dox/P.a.: concentration required to restore doxycycline activity: doxycycline at 4.5 µM (2 µg/mL). Here is the method:
Antibiotic restoring enhancer concentrations were determined using reported protocols (see Supplementary File).
Briefly, restoring enhancer concentrations were determined with an inoculum of 5x10^5 CFU in 200
µL of MHB containing two-fold serial dilutions of each derivative in the presence of doxycycline at 4.5
The lowest concentration of the polyamine
These measurements were independently repeated in triplicate. […]

The structures appear in SMILES notation. ≈ marks a conversion by molar mass, not a printed value.

In general, MIC refers to the smallest concentration in the dilution series that meets the test's criterion for growth inhibition. With `C=C[C@]1(C)C[C@@H](OC(=O)CNCCCNCCCCCCCCCCNCCCNCC(=O)O[C@@H]2C[C@@](C)(C=C)[C@@H](O)[C@H](C)[C@]34CCC(=O)[C@H]3[C@@]2(C)[C@H](C)CC4)[C@]2(C)[C@H](C)CC[C@]3(CCC(=O)[C@H]32)[C@@H](C)[C@@H]1O.O=C(O)C(F)(F)F.O=C(O)C(F)(F)F.O=C(O)C(F)(F)F.O=C(O)C(F)(F)F` [Compound 9e, N^1,N^1′-(Decane-1,10-diyl)bis(N^3-(2-(((3aR,4R,5R,7S,8S,9R,9aS,12R)-8-hydroxy-4,7,9,12-tetramethyl-3-oxo-7-vinyldecahydro-4,9a-propanocyclopenta [8]annulen-5-yl)oxy)-2-oxoethyl)propane-1,3-diaminium) 2,2,2-trifluoroacetate], the MIC was > 88 µM in the test on P. aeruginosa PAO1 [1]; 4.27 µM in the test with E. coli ATCC 25922; 10.9 µM with C. albicans ATCC 90028; ≤ 0.17 µM in test [3]; > 21.9 µM in test [4]. Also, the “Real-time bacterial growth inhibition” value in the test on P. aeruginosa PAO1 [2] is given as “No such inhibition”. Also, in the test with P. aeruginosa ATCC 27853 (doxycycline at 4.5 µM), the “Dox/P.a.: fold change, ratio between intrinsic MIC of test compound and combination MIC” value worked out at 2. Also, the “Dox/P.a.: concentration required to restore doxycycline activity” value in the test with P. aeruginosa ATCC 27853 was determined as 34.2 µM.

Consider `C=C[C@]1(C)C[C@@H](OC(=O)CSCCN(CC)CC)[C@]2(C)[C@H](C)CC[C@]3(CCC(=O)[C@H]32)[C@@H](C)[C@@H]1O` [Compound 2, Tiamulin, reference compound], for which the MIC was 800 µM in the test with P. aeruginosa PAO1 [1]; 200 µM (≈ 98.8 µg/mL) in the test with E. coli ATCC 25922; > 64.8 µM with C. albicans ATCC 90028; > 64.8 µM in test [3]; > 64.8 µM in test [4]. In the test on P. aeruginosa PAO1 [1], the “MIC P.a.” value is on record as “no activity”. Besides, in the test with E. coli ATCC 25922 (mean (n = 3)), the “MIC E.c.” value was “no activity”. For the same compound, in the test on P. aeruginosa PAO1 [2], the “Real-time bacterial growth inhibition” value was “No such inhibition”. Further, in the test with C. albicans ATCC 90028 (mean (n = 2)), the “MIC C.a.” value is “no activity”. For the same compound, the “MIC C.n.” value in test [3] (mean (n = 2)) is listed as “no activity”. Further, the “MIC K.p.” value in test [4] (mean (n = 2)) is listed as “no activity”. In addition, the “Dox/P.a.: concentration required to restore doxycycline activity” value with P. aeruginosa ATCC 27853 is listed as > 405 µM.
